Data reported in US7598245B2 (Vertex Pharmaceuticals Incorporated, priority 2003, dated 2009).

How the values were obtained:
Assay type in all cases: biochemical
CDK-2/Cyclin A = molecular target: T1, CDK-2/Cyclin A (Homo sapiens, UniProt P24941); assay: Inhibition of CDK-2, coupled enzyme assay; conditions: 100 μM ATP, 30° C.
T1 construct: 25 nM CDK-2/Cyclin A
Experimental: Compounds are screened for their ability to inhibit CDK-2/Cyclin A using a standard coupled enzyme assay [Fox et al. Protein Sci. 1998, 7, 2249]. Reactions were carried out in 100 mM HEPES (pH 7.5), 10 mM MgCl2, 25 mM NaCl, 1 mM DTT and 1.5% DMSO. Final substrate concentrations in the assay are 100 μM ATP (Sigma chemicals) and 100 μM peptide (American Peptide, Sunnyvale, Calif.). Assays are carried out at 30° C. and 25 nM CDK-2/Cyclin A. Final concentrations of the components of the coupled enzyme system are 2.5 mM phosphoenolpyruvate, 350 μM NADH, 30 μg/ml pyruvate kinase and 10 μg/ml lactate dehydrogenase.
An assay stock buffer solution is prepared containing all of the reagents listed above, with the exception of CDK-2/Cyclin A, DTT and the test compound of interest. 56 μl of the test reaction is placed in a 384 well plate followed by addition of 1 μl of 2 mM DMSO stock containing the test compound (final compound concentration 30 μM). The plate is preincubated for ˜10 minutes at 30° C. and the reaction initiated by addition of 10 μl of enzyme (final concentration 25 nM). Rates of reaction are obtained using a BioRad Ultramark plate reader (Hercules, Calif.) over a 5 minute read time at 30° C. Ki values are determined according to standard methods.

human Src kinase = molecular target: T2, human Src kinase (Homo sapiens, UniProt P12931); assay: Src inhibition assay B: spectrophotometric (uv-vis) coupled enzyme assay; conditions: 100 μM ATP
T2 construct: 25 nM of recombinant human Src kinase
Summary of the method: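 Recombinant human Src with 0.25 mg/ml poly Glu-Tyr in 0.025 M HEPES pH 7.6, 10 mM MgCl2, 2 mM DTT, 2.5% DMSO; 10 min preincubation at 30° C, started with 100 μM ATP. ADP quantified by pyruvate kinase/LDH coupled NADH oxidation at 340 nm; rates fitted to competitive inhibition model for Ki.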

JAK-3 = molecular target: T3, JAK-3 (Homo sapiens, UniProt P52333); assay: JAK3 inhibition assay (ELISA, Poly (Glu, Ala, Tyr) coated plates); conditions: 2 μM ATP
T3 sequence (P52333 1-1124): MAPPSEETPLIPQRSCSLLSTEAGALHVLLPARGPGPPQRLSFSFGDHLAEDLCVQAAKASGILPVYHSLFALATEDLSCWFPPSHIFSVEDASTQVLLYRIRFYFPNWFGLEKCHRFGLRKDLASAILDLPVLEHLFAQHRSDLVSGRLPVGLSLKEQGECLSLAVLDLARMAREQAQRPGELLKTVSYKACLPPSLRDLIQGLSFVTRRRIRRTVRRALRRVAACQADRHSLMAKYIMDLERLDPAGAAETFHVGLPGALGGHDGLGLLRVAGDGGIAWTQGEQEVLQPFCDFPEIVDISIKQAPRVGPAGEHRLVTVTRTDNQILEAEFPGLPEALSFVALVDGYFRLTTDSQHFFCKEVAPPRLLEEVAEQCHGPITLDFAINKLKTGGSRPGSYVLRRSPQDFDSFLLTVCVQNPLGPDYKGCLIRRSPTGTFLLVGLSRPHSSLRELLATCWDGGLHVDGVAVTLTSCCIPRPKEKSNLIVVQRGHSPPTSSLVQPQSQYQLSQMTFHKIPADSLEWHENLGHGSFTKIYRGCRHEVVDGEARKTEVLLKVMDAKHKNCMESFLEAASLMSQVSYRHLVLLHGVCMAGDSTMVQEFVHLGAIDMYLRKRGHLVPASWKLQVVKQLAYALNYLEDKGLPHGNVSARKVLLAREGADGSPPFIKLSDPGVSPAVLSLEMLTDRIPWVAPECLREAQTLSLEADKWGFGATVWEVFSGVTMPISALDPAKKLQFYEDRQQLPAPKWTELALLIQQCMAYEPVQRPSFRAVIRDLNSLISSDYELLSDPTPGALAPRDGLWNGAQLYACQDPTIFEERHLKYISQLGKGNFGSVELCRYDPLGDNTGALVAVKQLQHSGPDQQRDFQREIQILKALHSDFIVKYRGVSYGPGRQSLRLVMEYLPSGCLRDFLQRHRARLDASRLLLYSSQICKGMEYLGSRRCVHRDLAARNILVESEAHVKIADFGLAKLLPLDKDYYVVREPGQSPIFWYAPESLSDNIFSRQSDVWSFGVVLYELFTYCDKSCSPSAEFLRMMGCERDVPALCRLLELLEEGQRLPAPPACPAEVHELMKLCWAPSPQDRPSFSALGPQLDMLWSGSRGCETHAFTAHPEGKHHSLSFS
Summary of the method: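 ELISA on plates coated with poly(Glu,Ala,Tyr) 6:3:1, with 2 μM ATP, 5 mM MgCl2 and compound. Enzyme-started reaction ran 60 min at 30 °C. Phosphotyrosine detected with HRP-4G10 and TMB at 450 nm; Ki values derived.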

T2 sequence (P12931 whole entry): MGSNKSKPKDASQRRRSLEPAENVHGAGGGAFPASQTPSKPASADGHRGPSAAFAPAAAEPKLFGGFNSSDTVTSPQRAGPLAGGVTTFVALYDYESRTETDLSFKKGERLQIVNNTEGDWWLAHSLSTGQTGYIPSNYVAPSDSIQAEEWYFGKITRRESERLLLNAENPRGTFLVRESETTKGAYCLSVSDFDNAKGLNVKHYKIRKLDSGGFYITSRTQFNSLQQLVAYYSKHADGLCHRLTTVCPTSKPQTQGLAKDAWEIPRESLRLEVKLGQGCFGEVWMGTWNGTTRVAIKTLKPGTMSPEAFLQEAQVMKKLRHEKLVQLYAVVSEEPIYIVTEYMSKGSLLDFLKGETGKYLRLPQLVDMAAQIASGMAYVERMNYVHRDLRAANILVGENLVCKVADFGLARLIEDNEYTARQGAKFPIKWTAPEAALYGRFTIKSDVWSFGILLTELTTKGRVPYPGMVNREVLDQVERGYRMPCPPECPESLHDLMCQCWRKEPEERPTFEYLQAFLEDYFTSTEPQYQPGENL

SMILES	Ki (CDK-2/Cyclin A)	Ki (human Src kinase)	Ki (JAK-3)
c1ccc(-n2cnc(Nc3ccnc(N4CCOCC4)c3)n2)cc1 [Compound I-105]	0.5 to 1 µM	< 0.5 µM	0.01 to 1 µM
c1ccc(-n2cnc(Nc3ccc(N4CCOCC4)cc3)n2)cc1 [Compound I-106]	> 1 µM	> 1 µM	0.01 to 1 µM
c1ccc(-n2cnc(Nc3ccnc(NCCN4CCOCC4)c3)n2)cc1 [Compound I-107]	> 1 µM	> 1 µM	> 1 µM
c1ccc(-n2cnc(Nc3ccc(N4CCOCC4)nc3)n2)cc1 [Compound I-134]	> 1 µM	> 1 µM	> 1 µM
CN1CCN(c2ccc(Nc3ncn(-c4ccccc4)n3)cn2)CC1 [Compound I-135]	> 1 µM	> 1 µM	> 1 µM
